PMC5622079, “Control of leucine-dependent mTORC1 pathway through chemical intervention of leucyl-tRNA synthetase and RagD interaction” (Nature Communications, 2017)

Assays:
[1] = biological target: T1, Leucyl-tRNA synthetase (LRS) (Homo sapiens, UniProt Q9P2J5); assay: SPR (Biacore T-200, immobilised His-LRS); assay type: binding; set-up: gene LARS1; His-LRS WT
[2] = biological target: T1, Leucyl-tRNA synthetase (LRS); assay: HDX-MS (with BC-LI-0198) and thermal shift; assay type: binding; set-up: gene LARS1; human full-length LRS, N-terminal His9-tag

T1 sequence (Q9P2J5 whole entry): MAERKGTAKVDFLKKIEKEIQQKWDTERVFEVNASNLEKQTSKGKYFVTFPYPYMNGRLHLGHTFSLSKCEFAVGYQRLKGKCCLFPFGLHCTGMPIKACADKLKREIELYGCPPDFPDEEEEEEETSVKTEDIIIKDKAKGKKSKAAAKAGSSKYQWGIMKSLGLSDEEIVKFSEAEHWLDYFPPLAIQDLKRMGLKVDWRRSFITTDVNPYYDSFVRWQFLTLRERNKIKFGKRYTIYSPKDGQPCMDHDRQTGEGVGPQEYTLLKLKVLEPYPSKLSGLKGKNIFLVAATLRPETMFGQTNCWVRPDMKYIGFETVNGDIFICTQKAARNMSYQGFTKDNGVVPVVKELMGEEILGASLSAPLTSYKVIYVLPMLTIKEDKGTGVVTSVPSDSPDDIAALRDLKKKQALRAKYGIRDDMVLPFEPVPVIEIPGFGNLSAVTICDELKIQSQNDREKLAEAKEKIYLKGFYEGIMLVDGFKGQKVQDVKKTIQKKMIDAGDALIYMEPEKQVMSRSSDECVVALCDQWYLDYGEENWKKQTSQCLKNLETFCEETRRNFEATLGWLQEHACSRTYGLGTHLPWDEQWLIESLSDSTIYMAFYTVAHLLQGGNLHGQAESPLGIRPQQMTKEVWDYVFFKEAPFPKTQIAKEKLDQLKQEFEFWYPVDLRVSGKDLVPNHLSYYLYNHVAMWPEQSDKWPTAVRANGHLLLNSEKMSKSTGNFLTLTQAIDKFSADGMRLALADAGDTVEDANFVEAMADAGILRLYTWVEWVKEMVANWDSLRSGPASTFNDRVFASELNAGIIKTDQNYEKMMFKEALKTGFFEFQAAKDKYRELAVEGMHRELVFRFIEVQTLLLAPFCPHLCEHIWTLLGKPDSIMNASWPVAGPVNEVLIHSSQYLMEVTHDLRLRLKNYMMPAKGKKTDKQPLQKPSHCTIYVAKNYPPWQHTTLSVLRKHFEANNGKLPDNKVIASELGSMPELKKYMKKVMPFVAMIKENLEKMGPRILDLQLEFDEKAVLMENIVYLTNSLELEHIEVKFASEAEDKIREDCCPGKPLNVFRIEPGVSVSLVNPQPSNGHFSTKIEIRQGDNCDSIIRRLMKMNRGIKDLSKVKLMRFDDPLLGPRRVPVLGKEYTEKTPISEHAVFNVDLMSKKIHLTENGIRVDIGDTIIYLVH

SMILES | Kd [1] [nM] | HDX-MS (with BC-LI-0198) and thermal shift [2]
Cc1c(C(C)C)c(=O)n(-c2ccc(S(=O)(=O)NCCOc3ccccc3)cc2)n1C [BC-LI-0186] | 42.1 | –
CC(C)C[C@H](N)C(=O)NS(=O)(=O)OC[C@H]1O[C@@H](n2cnc3c(N)ncnc32)[C@H](O)[C@@H]1O [Leu-AMS] | – | HDX)-MS assays for LRS bound to BC-LI-0198 and Leu-AMS, a leucyl-sulfamoyl-adenylate analog of leucyl adenylate
